# Laboratory results taken from patent US9725442B2, “Heterocyclic derivative having PGD2 receptor antagonist activity” (Shionogi & Co., Ltd., priority 2011, dated 2017).
# Target: human ether-a-go-go related gene (hERG) channel (Homo sapiens (Human), UniProt Q12809)
# Test: hERG test (IKr, whole cell patch clamp in HEK293 cells)
# Format: cell-based
# Details: 1 μmol/L of the compound, HEK293 cells expressing hERG
# From the text: For the purpose of assessing risk of an electrocardiogram QT interval prolongation, effects on delayed rectifier K+ current (IKr), which plays an important role in the ventricular repolarization process of the compound of the present invention, was studied using HEK293 cells expressing human ether-a-go-go related gene (hERG) channel.
# After a cell was retained at a membrane potential of −80 mV by whole cell patch clamp method using an automated patch clamp system (PatchXpress 7000A, Axon Instruments Inc.) and given leakage potential at −50 mV, IKr induced by depolarization pulse stimulation at +40 mV for 2 seconds and, further, repolarization pulse stimulation at −50 mV for 2 seconds was recorded. After the generated current was stabilized, extracellular solution (NaCl: 135 mmol/L, KCl: 5.4 mmol/L, […]: 0.3 mmol/L, CaCl2.2H2O: 1.8 mmol/L, MgCl2.6H2O: 1 mmol/L, glucose: 10 mmol/L, HEPES (4-(2-hydroxyethyl)-1-piperazineethanesulfonic acid): 10 mmol/L, pH=7.4) in which a compound of the present invention had been dissolved at an objective concentration was applied to the cell under the room temperature condition for 10 minutes. From the recording IKr, an absolute value of the tail peak current was measured based on the current value at the resting membrane potential using an analysis software (DataXpress ver. 2, Molecular Devices Corporation).
# human ether-a-go-go related gene (hERG) channel, sequence (Q12809 whole entry): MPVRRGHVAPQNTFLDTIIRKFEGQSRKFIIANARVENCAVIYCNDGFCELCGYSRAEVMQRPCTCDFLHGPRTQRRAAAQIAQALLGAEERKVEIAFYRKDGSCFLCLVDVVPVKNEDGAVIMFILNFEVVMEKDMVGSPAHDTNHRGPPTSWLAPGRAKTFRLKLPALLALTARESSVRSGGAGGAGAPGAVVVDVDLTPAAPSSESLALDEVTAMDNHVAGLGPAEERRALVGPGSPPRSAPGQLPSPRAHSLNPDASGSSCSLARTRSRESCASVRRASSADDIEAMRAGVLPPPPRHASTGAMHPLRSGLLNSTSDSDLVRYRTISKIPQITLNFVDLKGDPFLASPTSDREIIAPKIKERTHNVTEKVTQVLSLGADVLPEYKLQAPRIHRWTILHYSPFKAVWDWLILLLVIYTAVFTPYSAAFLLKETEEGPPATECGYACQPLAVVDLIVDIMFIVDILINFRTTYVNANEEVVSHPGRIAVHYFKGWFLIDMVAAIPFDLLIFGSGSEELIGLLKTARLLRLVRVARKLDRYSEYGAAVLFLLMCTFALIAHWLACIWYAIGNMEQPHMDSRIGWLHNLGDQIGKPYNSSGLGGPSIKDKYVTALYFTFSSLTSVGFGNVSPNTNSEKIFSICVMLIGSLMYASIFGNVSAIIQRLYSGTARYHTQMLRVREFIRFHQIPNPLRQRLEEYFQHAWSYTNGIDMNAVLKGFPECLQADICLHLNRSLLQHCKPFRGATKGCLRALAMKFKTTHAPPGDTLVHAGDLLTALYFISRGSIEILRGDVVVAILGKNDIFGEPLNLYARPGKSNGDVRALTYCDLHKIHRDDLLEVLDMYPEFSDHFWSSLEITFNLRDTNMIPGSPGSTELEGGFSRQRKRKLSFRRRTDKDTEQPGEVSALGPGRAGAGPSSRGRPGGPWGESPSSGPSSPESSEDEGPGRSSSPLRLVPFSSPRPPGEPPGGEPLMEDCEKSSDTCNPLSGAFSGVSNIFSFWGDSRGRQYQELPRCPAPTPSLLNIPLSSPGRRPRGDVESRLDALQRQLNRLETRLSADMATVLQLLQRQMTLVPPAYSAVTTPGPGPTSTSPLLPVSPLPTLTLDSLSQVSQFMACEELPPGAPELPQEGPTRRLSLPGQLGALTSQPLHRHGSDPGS
structure (smiles),measurement,value
CC(C)Oc1ccc(S(=O)(=O)N2C[C@@H](C)[C@@H](n3nc(CC(=O)O)c4ccc(F)cc43)C2)cc1 [Compound I-37],% inhibition of IKr tail peak current,7.1%
